{"source": "PubChem BioAssay AID1963835", "about": "(Molecular Pharmacology Branch, DTP, NCI, 2024);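 note: spheroids exposed to agents for 7 days before viability reading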;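 for viability, T/C: percent of DMSO vehicle control viability so 100% = vehicle and 0% = no viable signal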", "test_system": "699152-130-R-J1-PDC complex spheroid viability", "test": "Anticancer human tumor 699152-130-R-J1-PDC patient-derived pancreatic carcinoma cell line growth inhibition [POLQ]", "conditions": "for IC50: curve of first compound; for viability, T/C: stronger effect = lower value", "how_it_was_run": "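Complex spheroid viability model combining PDC tumour cells with endothelial (HUVEC) and MSC stromal cells. Novobiocin, ART-558 or RP6685 were tested singly and in combination with standard and investigational anticancer drugs. Each was titrated in half-log steps from near clinical Cmax, or from 10 microM where Cmax was unknown.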"}
{"smiles": "CC(=O)O[C@H]1C(=O)[C@@]2(C)[C@H]([C@H](OC(=O)c3ccccc3)[C@]3(O)C[C@H](OC(=O)[C@H](O)[C@@H](NC(=O)c4ccccc4)c4ccccc4)C(C)=C1C3(C)C)[C@]1(OC(C)=O)CO[C@@H]1C[C@@H]2O", "note": "+ Cc1cccc(N(C)C(=O)C2C(O)CCN2c2nc(C)cc(C(F)(F)F)c2C#N)c1", "values": [{"measurement": "IC50", "setting": "second compound 0.0316 µM", "result": "> 3000", "unit": "nM"}, {"measurement": "IC50", "setting": "second compound 0.1 µM", "result": "> 3000", "unit": "nM"}, {"measurement": "IC50", "setting": "second compound 0.316 µM", "result": "> 3000", "unit": "nM"}, {"measurement": "IC50", "setting": "second compound 1 µM", "result": "> 3000", "unit": "nM"}, {"measurement": "IC50", "setting": "second compound 3.16 µM", "result": "> 3000", "unit": "nM"}, {"measurement": "IC50", "setting": "second compound 10 µM", "result": "> 3000", "unit": "nM"}, {"measurement": "viability, T/C", "setting": "second compound 0.0316 µM, first compound 0.00949 µM", "result": 83.5, "unit": "%"}, {"measurement": "viability, T/C", "setting": "second compound 0.0316 µM, first compound 0.03 µM", "result": 57.6, "unit": "%"}, {"measurement": "viability, T/C", "setting": "second compound 0.0316 µM, first compound 0.0949 µM", "result": 56.1, "unit": "%"}, {"measurement": "viability, T/C", "setting": "second compound 0.0316 µM, first compound 0.3 µM", "result": 56.9, "unit": "%"}, {"measurement": "viability, T/C", "setting": "second compound 0.0316 µM, first compound 0.949 µM", "result": 67, "unit": "%"}, {"measurement": "viability, T/C", "setting": "second compound 0.0316 µM, first compound 3 µM", "result": 65.9, "unit": "%"}, {"measurement": "viability, T/C", "setting": "second compound 0.1 µM, first compound 0.00949 µM", "result": 79.7, "unit": "%"}, {"measurement": "viability, T/C", "setting": "second compound 0.1 µM, first compound 0.03 µM", "result": 57.1, "unit": "%"}, {"measurement": "viability, T/C", "setting": "second compound 0.1 µM, first compound 0.0949 µM", "result": 51, "unit": "%"}, {"measurement": "viability, T/C", "setting": "second compound 0.1 µM, first compound 0.3 µM", "result": 57.7, "unit": "%"}, {"measurement": "viability, T/C", "setting": "second compound 0.1 µM, first compound 0.949 µM", "result": 72.2, "unit": "%"}, {"measurement": "viability, T/C", "setting": "second compound 0.1 µM, first compound 3 µM", "result": 64.9, "unit": "%"}, {"measurement": "viability, T/C", "setting": "second compound 0.316 µM, first compound 0.00949 µM", "result": 74.5, "unit": "%"}, {"measurement": "viability, T/C", "setting": "second compound 0.316 µM, first compound 0.03 µM", "result": 60.9, "unit": "%"}, {"measurement": "viability, T/C", "setting": "second compound 0.316 µM, first compound 0.0949 µM", "result": 53.3, "unit": "%"}, {"measurement": "viability, T/C", "setting": "second compound 0.316 µM, first compound 0.3 µM", "result": 59.4, "unit": "%"}, {"measurement": "viability, T/C", "setting": "second compound 0.316 µM, first compound 0.949 µM", "result": 64.9, "unit": "%"}, {"measurement": "viability, T/C", "setting": "second compound 0.316 µM, first compound 3 µM", "result": 64.1, "unit": "%"}, {"measurement": "viability, T/C", "setting": "second compound 1 µM, first compound 0.00949 µM", "result": 81.2, "unit": "%"}, {"measurement": "viability, T/C", "setting": "second compound 1 µM, first compound 0.03 µM", "result": 54.8, "unit": "%"}, {"measurement": "viability, T/C", "setting": "second compound 1 µM, first compound 0.0949 µM", "result": 57.9, "unit": "%"}, {"measurement": "viability, T/C", "setting": "second compound 1 µM, first compound 0.3 µM", "result": 61.3, "unit": "%"}, {"measurement": "viability, T/C", "setting": "second compound 1 µM, first compound 0.949 µM", "result": 62.4, "unit": "%"}, {"measurement": "viability, T/C", "setting": "second compound 1 µM, first compound 3 µM", "result": 71.8, "unit": "%"}, {"measurement": "viability, T/C", "setting": "second compound 3.16 µM, first compound 0.00949 µM", "result": 82.8, "unit": "%"}, {"measurement": "viability, T/C", "setting": "second compound 3.16 µM, first compound 0.03 µM", "result": 62.1, "unit": "%"}, {"measurement": "viability, T/C", "setting": "second compound 3.16 µM, first compound 0.0949 µM", "result": 58.8, "unit": "%"}, {"measurement": "viability, T/C", "setting": "second compound 3.16 µM, first compound 0.3 µM", "result": 65.2, "unit": "%"}, {"measurement": "viability, T/C", "setting": "second compound 3.16 µM, first compound 0.949 µM", "result": 69.7, "unit": "%"}, {"measurement": "viability, T/C", "setting": "second compound 3.16 µM, first compound 3 µM", "result": 79.1, "unit": "%"}, {"measurement": "viability, T/C", "setting": "second compound 10 µM, first compound 0.00949 µM", "result": 84, "unit": "%"}, {"measurement": "viability, T/C", "setting": "second compound 10 µM, first compound 0.03 µM", "result": 57, "unit": "%"}, {"measurement": "viability, T/C", "setting": "second compound 10 µM, first compound 0.0949 µM", "result": 69.1, "unit": "%"}, {"measurement": "viability, T/C", "setting": "second compound 10 µM, first compound 0.3 µM", "result": 65.9, "unit": "%"}, {"measurement": "viability, T/C", "setting": "second compound 10 µM, first compound 0.949 µM", "result": 72.1, "unit": "%"}, {"measurement": "viability, T/C", "setting": "second compound 10 µM, first compound 3 µM", "result": 82.8, "unit": "%"}]}
{"smiles": "CC[C@@]1(O)C(=O)OCc2c1cc1n(c2=O)Cc2cc3c(CN(C)C)c(O)ccc3nc2-1", "note": "+ Cc1cccc(N(C)C(=O)C2C(O)CCN2c2nc(C)cc(C(F)(F)F)c2C#N)c1", "values": [{"measurement": "IC50", "setting": "second compound 0.0316 µM", "result": "> 100", "unit": "nM"}, {"measurement": "IC50", "setting": "second compound 0.1 µM", "result": "> 100", "unit": "nM"}, {"measurement": "IC50", "setting": "second compound 0.316 µM", "result": "> 100", "unit": "nM"}, {"measurement": "IC50", "setting": "second compound 1 µM", "result": "> 100", "unit": "nM"}, {"measurement": "IC50", "setting": "second compound 3.16 µM", "result": "> 100", "unit": "nM"}, {"measurement": "IC50", "setting": "second compound 10 µM", "result": "> 100", "unit": "nM"}, {"measurement": "viability, T/C", "setting": "second compound 0.0316 µM, first compound 0.000316 µM", "result": 104, "unit": "%"}, {"measurement": "viability, T/C", "setting": "second compound 0.0316 µM, first compound 0.001 µM", "result": 118, "unit": "%"}, {"measurement": "viability, T/C", "setting": "second compound 0.0316 µM, first compound 0.00316 µM", "result": 95.4, "unit": "%"}, {"measurement": "viability, T/C", "setting": "second compound 0.0316 µM, first compound 0.01 µM", "result": 90.2, "unit": "%"}, {"measurement": "viability, T/C", "setting": "second compound 0.0316 µM, first compound 0.0316 µM", "result": 81.3, "unit": "%"}, {"measurement": "viability, T/C", "setting": "second compound 0.0316 µM, first compound 0.1 µM", "result": 67.3, "unit": "%"}, {"measurement": "viability, T/C", "setting": "second compound 0.1 µM, first compound 0.000316 µM", "result": 103, "unit": "%"}, {"measurement": "viability, T/C", "setting": "second compound 0.1 µM, first compound 0.001 µM", "result": 103, "unit": "%"}, {"measurement": "viability, T/C", "setting": "second compound 0.1 µM, first compound 0.00316 µM", "result": 91, "unit": "%"}, {"measurement": "viability, T/C", "setting": "second compound 0.1 µM, first compound 0.01 µM", "result": 112, "unit": "%"}, {"measurement": "viability, T/C", "setting": "second compound 0.1 µM, first compound 0.0316 µM", "result": 82.5, "unit": "%"}, {"measurement": "viability, T/C", "setting": "second compound 0.1 µM, first compound 0.1 µM", "result": 58.2, "unit": "%"}, {"measurement": "viability, T/C", "setting": "second compound 0.316 µM, first compound 0.000316 µM", "result": 101, "unit": "%"}, {"measurement": "viability, T/C", "setting": "second compound 0.316 µM, first compound 0.001 µM", "result": 99.2, "unit": "%"}, {"measurement": "viability, T/C", "setting": "second compound 0.316 µM, first compound 0.00316 µM", "result": 116, "unit": "%"}, {"measurement": "viability, T/C", "setting": "second compound 0.316 µM, first compound 0.01 µM", "result": 93.6, "unit": "%"}, {"measurement": "viability, T/C", "setting": "second compound 0.316 µM, first compound 0.0316 µM", "result": 76.4, "unit": "%"}, {"measurement": "viability, T/C", "setting": "second compound 0.316 µM, first compound 0.1 µM", "result": 63.2, "unit": "%"}, {"measurement": "viability, T/C", "setting": "second compound 1 µM, first compound 0.000316 µM", "result": 111, "unit": "%"}, {"measurement": "viability, T/C", "setting": "second compound 1 µM, first compound 0.001 µM", "result": 97.5, "unit": "%"}, {"measurement": "viability, T/C", "setting": "second compound 1 µM, first compound 0.00316 µM", "result": 111, "unit": "%"}, {"measurement": "viability, T/C", "setting": "second compound 1 µM, first compound 0.01 µM", "result": 99.9, "unit": "%"}, {"measurement": "viability, T/C", "setting": "second compound 1 µM, first compound 0.0316 µM", "result": 81.2, "unit": "%"}, {"measurement": "viability, T/C", "setting": "second compound 1 µM, first compound 0.1 µM", "result": 58.7, "unit": "%"}, {"measurement": "viability, T/C", "setting": "second compound 3.16 µM, first compound 0.000316 µM", "result": 99.7, "unit": "%"}, {"measurement": "viability, T/C", "setting": "second compound 3.16 µM, first compound 0.001 µM", "result": 106, "unit": "%"}, {"measurement": "viability, T/C", "setting": "second compound 3.16 µM, first compound 0.00316 µM", "result": 112, "unit": "%"}, {"measurement": "viability, T/C", "setting": "second compound 3.16 µM, first compound 0.01 µM", "result": 97.5, "unit": "%"}, {"measurement": "viability, T/C", "setting": "second compound 3.16 µM, first compound 0.0316 µM", "result": 80.5, "unit": "%"}, {"measurement": "viability, T/C", "setting": "second compound 3.16 µM, first compound 0.1 µM", "result": 64.1, "unit": "%"}, {"measurement": "viability, T/C", "setting": "second compound 10 µM, first compound 0.000316 µM", "result": 102, "unit": "%"}, {"measurement": "viability, T/C", "setting": "second compound 10 µM, first compound 0.001 µM", "result": 105, "unit": "%"}, {"measurement": "viability, T/C", "setting": "second compound 10 µM, first compound 0.00316 µM", "result": 95.6, "unit": "%"}, {"measurement": "viability, T/C", "setting": "second compound 10 µM, first compound 0.01 µM", "result": 91.8, "unit": "%"}, {"measurement": "viability, T/C", "setting": "second compound 10 µM, first compound 0.0316 µM", "result": 85.5, "unit": "%"}, {"measurement": "viability, T/C", "setting": "second compound 10 µM, first compound 0.1 µM", "result": 68.8, "unit": "%"}]}
